Reference: ChEMBL document CHEMBL3875174, “Further investigation of Paprotrain: Towards the conception of selective and multi-targeted CNS kinase inhibitors” (Eur J Med Chem, 2016)

How the values were obtained:
[1] = target: Dual specificity protein kinase CLK1 (Homo sapiens, UniProt P49759); experiment: Inhibition of GST-tagged human recombinant CLK1 expressed in Escherichia coli using RS peptide as substrate incubated for 30 mins in presence of [gamma-33 P] ATP by liquid scintillation counting analysis
Chain of Dual specificity protein kinase CLK1 (P49759 whole entry): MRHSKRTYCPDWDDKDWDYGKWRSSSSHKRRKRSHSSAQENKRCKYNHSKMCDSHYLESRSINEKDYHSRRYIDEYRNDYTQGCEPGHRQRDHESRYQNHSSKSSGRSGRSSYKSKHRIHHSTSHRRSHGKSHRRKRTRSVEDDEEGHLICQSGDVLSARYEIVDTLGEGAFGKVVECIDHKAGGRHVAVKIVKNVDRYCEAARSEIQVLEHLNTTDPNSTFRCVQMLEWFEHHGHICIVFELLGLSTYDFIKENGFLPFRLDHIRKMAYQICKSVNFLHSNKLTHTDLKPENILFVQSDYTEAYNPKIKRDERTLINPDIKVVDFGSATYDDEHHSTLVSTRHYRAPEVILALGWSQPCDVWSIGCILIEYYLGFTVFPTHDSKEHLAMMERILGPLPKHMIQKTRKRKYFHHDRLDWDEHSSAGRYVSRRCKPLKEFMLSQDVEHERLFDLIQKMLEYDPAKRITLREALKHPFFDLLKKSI

[2] = target: Dual specificity tyrosine-phosphorylation-regulated kinase 1B (Homo sapiens, UniProt Q9Y463); experiment: Inhibition of GST-tagged human recombinant DYRK1B expressed in Escherichia coli using RS peptide as substrate incubated for 30 mins in presence of [gamma-33 P] ATP by liquid scintillation counting analysis
Chain of Dual specificity tyrosine-phosphorylation-regulated kinase 1B (Q9Y463 whole entry): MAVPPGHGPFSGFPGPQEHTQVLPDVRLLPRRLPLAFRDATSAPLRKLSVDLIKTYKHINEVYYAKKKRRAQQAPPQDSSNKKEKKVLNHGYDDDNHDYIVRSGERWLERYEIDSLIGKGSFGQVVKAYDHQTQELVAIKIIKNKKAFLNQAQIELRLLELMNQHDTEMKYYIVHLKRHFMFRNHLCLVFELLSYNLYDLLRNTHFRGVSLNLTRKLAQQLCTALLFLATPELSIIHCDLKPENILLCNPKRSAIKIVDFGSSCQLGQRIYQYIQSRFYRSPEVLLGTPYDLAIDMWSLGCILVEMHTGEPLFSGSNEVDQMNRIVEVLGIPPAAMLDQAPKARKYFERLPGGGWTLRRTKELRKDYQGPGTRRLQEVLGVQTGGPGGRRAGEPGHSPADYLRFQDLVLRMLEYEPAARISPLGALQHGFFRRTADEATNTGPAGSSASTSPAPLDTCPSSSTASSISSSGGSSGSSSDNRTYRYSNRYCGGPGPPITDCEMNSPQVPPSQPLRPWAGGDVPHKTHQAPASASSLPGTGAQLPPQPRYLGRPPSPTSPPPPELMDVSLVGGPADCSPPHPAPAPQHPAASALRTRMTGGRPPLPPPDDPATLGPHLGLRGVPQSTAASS

[3] = target: Dual specificity protein kinase CLK4 (Homo sapiens, UniProt Q9HAZ1); experiment: Inhibition of GST-tagged human recombinant CLK4 expressed in Escherichia coli using RS peptide as substrate incubated for 30 mins in presence of [gamma-33 P] ATP by liquid scintillation counting analysis
Chain of Dual specificity protein kinase CLK4 (Q9HAZ1 whole entry): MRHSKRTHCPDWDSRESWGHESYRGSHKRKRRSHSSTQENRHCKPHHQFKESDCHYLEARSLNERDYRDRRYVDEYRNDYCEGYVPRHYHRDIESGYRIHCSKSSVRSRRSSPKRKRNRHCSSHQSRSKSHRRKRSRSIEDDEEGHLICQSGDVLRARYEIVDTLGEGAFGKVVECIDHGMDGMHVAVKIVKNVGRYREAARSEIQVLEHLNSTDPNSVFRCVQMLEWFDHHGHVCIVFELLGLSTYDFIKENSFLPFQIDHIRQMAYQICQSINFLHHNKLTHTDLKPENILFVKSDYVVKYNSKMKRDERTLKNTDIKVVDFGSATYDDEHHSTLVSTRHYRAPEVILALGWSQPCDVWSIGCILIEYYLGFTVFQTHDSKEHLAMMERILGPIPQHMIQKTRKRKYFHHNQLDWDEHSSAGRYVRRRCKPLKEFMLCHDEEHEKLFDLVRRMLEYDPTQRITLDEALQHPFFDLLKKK

[4] = Inhibition of porcine brain CK1 delta/epsilon using RRKHAAIGpSAYSITA as substrate incubated for 30 mins in presence of [gamma-33 P] ATP by liquid scintillation counting analysis; design: species or system Sus scrofa
[5] = target: Dual specificity protein kinase CLK2 (Homo sapiens, UniProt P49760); experiment: Inhibition of GST-tagged human recombinant CLK2 expressed in Escherichia coli using RS peptide as substrate incubated for 30 mins in presence of [gamma-33 P] ATP by liquid scintillation counting analysis
Chain of Dual specificity protein kinase CLK2 (P49760 whole entry): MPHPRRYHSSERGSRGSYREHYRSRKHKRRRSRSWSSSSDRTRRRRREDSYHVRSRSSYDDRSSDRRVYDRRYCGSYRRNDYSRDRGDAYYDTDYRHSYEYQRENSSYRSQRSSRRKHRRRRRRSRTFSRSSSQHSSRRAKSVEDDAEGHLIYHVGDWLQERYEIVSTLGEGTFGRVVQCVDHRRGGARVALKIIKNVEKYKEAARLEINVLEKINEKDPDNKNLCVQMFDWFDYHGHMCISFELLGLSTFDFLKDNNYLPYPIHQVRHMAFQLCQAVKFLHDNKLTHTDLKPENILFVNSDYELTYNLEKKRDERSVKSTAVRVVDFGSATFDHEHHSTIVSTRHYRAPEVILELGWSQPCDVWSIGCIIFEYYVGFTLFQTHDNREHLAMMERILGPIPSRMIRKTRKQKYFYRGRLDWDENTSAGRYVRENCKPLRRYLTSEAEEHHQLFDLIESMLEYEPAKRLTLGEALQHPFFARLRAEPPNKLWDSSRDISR

[6] = target: Cyclin-dependent kinase 5/CDK5 activator 1 (Homo sapiens, UniProt Q00535); type: protein-complex assay
Chain of Cyclin-dependent kinase 5/CDK5 activator 1 (Q00535 whole entry): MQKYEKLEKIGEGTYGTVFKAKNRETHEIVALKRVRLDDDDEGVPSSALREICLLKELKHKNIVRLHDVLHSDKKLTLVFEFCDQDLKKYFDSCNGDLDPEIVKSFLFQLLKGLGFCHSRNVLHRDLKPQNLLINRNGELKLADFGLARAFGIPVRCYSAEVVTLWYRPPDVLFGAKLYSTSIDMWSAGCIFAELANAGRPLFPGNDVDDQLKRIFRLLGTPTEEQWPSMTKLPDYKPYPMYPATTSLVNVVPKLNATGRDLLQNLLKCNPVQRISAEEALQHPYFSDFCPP
Chain of Cyclin-dependent kinase 5/CDK5 activator 1 (Q15078 whole entry, further chain): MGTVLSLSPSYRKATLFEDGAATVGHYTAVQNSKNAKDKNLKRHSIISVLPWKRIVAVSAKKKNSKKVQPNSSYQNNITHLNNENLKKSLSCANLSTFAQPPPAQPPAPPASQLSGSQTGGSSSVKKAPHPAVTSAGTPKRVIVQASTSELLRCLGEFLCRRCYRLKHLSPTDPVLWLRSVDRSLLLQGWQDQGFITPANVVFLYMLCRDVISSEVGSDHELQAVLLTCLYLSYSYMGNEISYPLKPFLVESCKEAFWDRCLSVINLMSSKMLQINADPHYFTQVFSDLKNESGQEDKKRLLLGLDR

[7] = target: Glycogen synthase kinase-3 (Sus scrofa, UniProt B2LUN4+I6LNT8); experiment: Inhibition of porcine brain GSK3alpha/beta using GS-1 as substrate incubated for 30 mins in presence of [gamma-33 P] ATP by liquid scintillation counting analysis
[8] = Cytotoxicity against human KB cells assessed as growth inhibition at 1 uM after 72 hrs by MTS assay; type: toxicity, cell-based; conditions: for inhibition at 72 h, 1 µM: KB cells, read-out: GI; for growth inhibition (GI): kb, 72 h, 1 µM
[9] = target: Dual specificity protein kinase CLK3 (Homo sapiens, UniProt P49761); experiment: Inhibition of GST-tagged human recombinant CLK3 expressed in Escherichia coli using RS peptide as substrate incubated for 30 mins in presence of [gamma-33 P] ATP by liquid scintillation counting analysis
Chain of Dual specificity protein kinase CLK3 (P49761 whole entry): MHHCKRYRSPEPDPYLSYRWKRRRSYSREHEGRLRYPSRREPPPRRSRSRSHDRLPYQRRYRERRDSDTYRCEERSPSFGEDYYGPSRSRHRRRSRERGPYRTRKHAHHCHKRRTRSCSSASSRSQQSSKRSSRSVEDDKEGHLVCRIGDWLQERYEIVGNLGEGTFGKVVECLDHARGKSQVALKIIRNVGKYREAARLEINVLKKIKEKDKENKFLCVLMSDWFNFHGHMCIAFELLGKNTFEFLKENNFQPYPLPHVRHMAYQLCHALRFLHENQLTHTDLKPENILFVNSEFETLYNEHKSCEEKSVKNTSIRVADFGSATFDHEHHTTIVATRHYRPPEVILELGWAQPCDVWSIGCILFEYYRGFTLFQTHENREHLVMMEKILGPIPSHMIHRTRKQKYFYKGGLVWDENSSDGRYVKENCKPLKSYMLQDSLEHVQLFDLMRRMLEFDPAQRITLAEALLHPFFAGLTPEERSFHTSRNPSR

[10] = target: Dual specificity tyrosine-phosphorylation-regulated kinase 1A (Homo sapiens, UniProt Q13627); experiment: Inhibition of GST-tagged human recombinant DYRK1A expressed in Escherichia coli using RS peptide as substrate incubated for 30 mins in presence of [gamma-33 P] ATP by liquid scintillation counting analysis

SMILES | IC50 [1] [nM] | IC50 [2] [nM] | IC50 [3] [nM] | IC50 [4] [nM] | IC50 [5] [nM] | IC50 [6] [nM] | IC50 [7] [nM] | IC50 [9] [nM] | IC50 [10] [nM] | inhibition at 72 h, 1 µM [8] [%] | growth inhibition (GI) [8]
N#C/C(=C\c1cccnc1)c1c[nH]c2ncccc12 | 16 | 240 | 47 | > 10000 | 4600 | 130 | 720 | > 10000 | 21 | 29 | 
N#C/C(=C/c1cccnc1)c1c[nH]c2ccccc12 | > 10000 |  |  |  |  | > 10000 | > 10000 |  | > 10000 |  | 
N#Cc1cc2ccncc2c2[nH]c3ccccc3c12 | 170 | 260 | 180 | > 10000 | 1100 | 6000 | 2400 | 1800 | 370 | 3 | 
COc1ccc2c(n1)[nH]c1c3ccncc3cc(C#N)c21 | 86 | 93 | 47 | > 10000 | 4600 | > 10000 | > 10000 | > 10000 | 200 |  | Non-Toxic
COc1cccc2c1[nH]c1c3ccncc3cc(C#N)c21 | 41 | 28 | 40 | > 10000 | 44 | 460 | 2000 | 180 | 27 | 9 | 
N#C/C(=C\c1ccncc1)c1c[nH]c2ccccc12 |  |  |  |  |  | > 10000 | > 10000 |  | > 10000 |  | 
COc1ccc2c(/C(C#N)=C/c3cccnc3)c[nH]c2n1 | 230 | 100 | 71 | > 10000 | 2300 | > 10000 | > 10000 | > 10000 | 180 |  | Non-Toxic
COc1ccc2c(/C(C#N)=C/c3cccnc3)c[nH]c2c1 | 1300 |  |  | > 10000 |  | > 10000 | > 10000 |  | 1600 |  | 
COc1ccc2[nH]c3c(=O)[nH]c(-c4cccnc4)c(C#N)c3c2c1 | 47 | 1100 | 21 | > 10000 | 610 | > 10000 | > 10000 | > 10000 | 4300 |  | Non-Toxic
COc1ccc2[nH]cc(/C(C#N)=C/c3cccnc3)c2c1 |  |  |  |  |  | > 10000 | > 10000 |  | 6300 |  | 
N#C/C(=C\c1cccnc1)c1c[nH]c2ccc(F)cc12 | 1700 |  |  | > 10000 |  | > 10000 | > 10000 |  | 1800 |  | 
N#C/C(=C\c1ccccn1)c1c[nH]c2ccccc12 |  |  |  |  |  | > 10000 | > 10000 |  | > 10000 |  | 
N#C/C(=C\c1cccnc1)c1c[nH]c2ccccc12 |  |  |  |  |  | > 10000 | > 10000 |  | 5500 |  | 
COc1ccc2[nH]c3c4ccncc4cc(C#N)c3c2c1 | 51 | 220 | 57 | > 10000 | 110 | 800 | 1700 | 710 | 370 |  | Non-Toxic
N#C/C(=C\c1ccccc1)c1c[nH]c2ccccc12 |  |  |  |  |  | > 10000 | > 10000 |  | > 10000 |  | 
COc1cncc(/C=C(\C#N)c2c[nH]c3ccc(OC)cc23)c1 | 2300 |  |  | > 10000 |  | > 10000 | > 10000 |  | > 10000 |  | 
COc1cccc2[nH]cc(/C(C#N)=C/c3cccnc3)c12 | 3000 |  |  | > 10000 |  | > 10000 | > 10000 |  | 6000 |  | 
COc1cccc2c(/C(C#N)=C/c3cccnc3)c[nH]c12 | 1500 |  |  | > 10000 |  | > 10000 | > 10000 |  | 1200 |  | 
COc1ccc2c(c1)[nH]c1c(C)nccc12 [HARMINE] |  |  |  | 1500 |  |  | > 10000 |  |  |  | 
N#C/C(=C\c1cccnc1)c1c[nH]c2ccc(Cl)cc12 | 2000 |  |  | > 10000 |  | > 10000 | > 10000 |  | 3300 |  | 
COc1ccc2c(c1)[nH]c1c3ccncc3cc(C(N)=O)c21 | 1600 |  |  | > 10000 |  | 4500 | 9000 |  | 2000 |  | 
N#Cc1cc2ccccc2c2[nH]c3ccccc3c12 | 1400 |  |  | > 10000 |  | > 10000 | > 10000 |  | 2300 |  | 

Second part, led by results:

IC50 [1] [nM] | IC50 [2] [nM] | IC50 [3] [nM] | IC50 [4] [nM] | IC50 [5] [nM] | IC50 [6] [nM] | IC50 [7] [nM] | IC50 [9] [nM] | IC50 [10] [nM] | SMILES | inhibition at 72 h, 1 µM [8] [%] | growth inhibition (GI) [8]
23 | 42 | 30 | > 10000 | 150 | 6400 | 140 | 320 | 18 | COc1ccc2c(c1)[nH]c1c3c(OC)cncc3cc(C#N)c21 | 38 | 
430 | 220 | 110 | > 10000 | 3500 | 7000 | > 10000 | 6100 | 5800 | COc1ccc2c(-c3ccncc3)c[nH]c2n1 |  | Non-Toxic
> 10000 |  |  | > 10000 |  | > 10000 | > 10000 |  | 4000 | N#Cc1cc2cnccc2c2[nH]c3ccc(Cl)cc3c12 |  | 
> 10000 |  |  | > 10000 |  | 6400 | > 10000 |  | 5000 | COc1ccc2[nH]cc3c2c1C(C)NC(c1cccnc1)=C3C#N (centres undefined) |  | 
2100 |  |  | > 10000 |  | > 10000 | > 10000 |  | > 10000 | Nc1nc2ccccc2c2cc3cnccc3cc12 |  | 
2900 |  |  | > 10000 |  | > 10000 | > 10000 |  | > 10000 | COc1ccc2cc(-c3ccncc3)[nH]c2n1 |  | 
34 | 590 | 22 | > 10000 | 1100 | 8000 | > 10000 | 7000 | 850 | COc1ccc2[nH]cc(-c3cc4cnccc4cc3NC(C)=O)c2c1 |  | Non-Toxic
570 | 460 | 110 | > 10000 | 3500 | 9000 | 8800 | 6100 | 600 | COc1cccc2c1[nH]c1c3ccncc3cc(C(N)=O)c21 |  | Non-Toxic
4000 |  |  | > 10000 |  | > 10000 | > 10000 |  | 5500 | COc1ccc2[nH]cc(/C(C#N)=C/c3cnccc3C)c2c1 |  | 
23 | 34 | 33 | > 10000 | 80 | 440 | 680 | 190 | 25 | COc1ccc2c(c1)[nH]c1c3ccncc3cc(C#N)c21 | 64 | 
1400 |  |  | > 10000 |  | 5400 | > 10000 |  | 670 | COc1ccc2c(c1)[nH]c1c3ccncc3cc(CN(C)C)c21 | 37 | 
 |  |  |  |  | > 10000 | > 10000 |  | > 10000 | N#Cc1cc2cccnc2c2[nH]c3ccccc3c12 |  | 
1100 |  |  | > 10000 |  | > 10000 | > 10000 |  | 7300 | COc1ccc2c(CC#N)c(-c3ccncc3)[nH]c2n1 |  | 
56 |  |  | > 10000 |  | 930 | 4000 |  | 600 | COc1ccc2[nH]c3c4c(OC)cncc4cc(C#N)c3c2c1 |  | Non-Toxic
1600 |  |  | > 10000 |  | 1600 | > 10000 |  | 3300 | COc1ccc2c(c1)[nH]c1c3c(OC)cncc3cc(C(N)=O)c21 |  | 
 |  |  |  |  | 800 | 1000 |  | 50 | N#Cc1cc2cnccc2c2[nH]c3ccccc3c12 |  | 
> 10000 |  |  | > 10000 |  | > 10000 | > 10000 |  | 10000 | N#Cc1cc2ncccc2c2[nH]c3ccccc3c12 |  | 
> 10000 |  |  | > 10000 |  | > 10000 | > 10000 |  | > 10000 | N#Cc1cc2ccccn2c2nc3ccccc3c1-2 |  | 
> 10000 |  |  | > 10000 |  | > 10000 | > 10000 |  | > 10000 | COc1ccc2[nH]cc(/C(C#N)=C(\N)c3cccnc3)c2c1 |  | 
